We go through 18 compounds from patent US20240109865A1, “INDAZOLE COMPOUNDS AS KINASE INHIBITORS” (TYRA BIOSCIENCES, INC., priority 2020, published 2024).

The Kd is a measure of binding affinity in units of concentration. Low readings indicate higher affinity, high ones lower affinity.

Holding throughout (test): Kinase assay, binding constants (Kd), kinase-tagged T7 phage, qPCR
Background: In qPCR the cycle at which signal appears reflects the starting amount.

In one assay the target is FGFR2 (Homo sapiens (Human), UniProt P21802). The procedure, abridged: (§1)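 Kinase-tagged T7 phage (grown in BL21-derived E. coli) competed with test compound for immobilized biotinylated ligand on streptavidin beads. Kds came from an 11-point 3-fold dilution series at 0.9% final DMSO. Bound kinase was eluted with non-biotinylated ligand and quantified by qPCR, with Hill slope fixed at −1.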
Sequence of FGFR2 (P21802 22-821): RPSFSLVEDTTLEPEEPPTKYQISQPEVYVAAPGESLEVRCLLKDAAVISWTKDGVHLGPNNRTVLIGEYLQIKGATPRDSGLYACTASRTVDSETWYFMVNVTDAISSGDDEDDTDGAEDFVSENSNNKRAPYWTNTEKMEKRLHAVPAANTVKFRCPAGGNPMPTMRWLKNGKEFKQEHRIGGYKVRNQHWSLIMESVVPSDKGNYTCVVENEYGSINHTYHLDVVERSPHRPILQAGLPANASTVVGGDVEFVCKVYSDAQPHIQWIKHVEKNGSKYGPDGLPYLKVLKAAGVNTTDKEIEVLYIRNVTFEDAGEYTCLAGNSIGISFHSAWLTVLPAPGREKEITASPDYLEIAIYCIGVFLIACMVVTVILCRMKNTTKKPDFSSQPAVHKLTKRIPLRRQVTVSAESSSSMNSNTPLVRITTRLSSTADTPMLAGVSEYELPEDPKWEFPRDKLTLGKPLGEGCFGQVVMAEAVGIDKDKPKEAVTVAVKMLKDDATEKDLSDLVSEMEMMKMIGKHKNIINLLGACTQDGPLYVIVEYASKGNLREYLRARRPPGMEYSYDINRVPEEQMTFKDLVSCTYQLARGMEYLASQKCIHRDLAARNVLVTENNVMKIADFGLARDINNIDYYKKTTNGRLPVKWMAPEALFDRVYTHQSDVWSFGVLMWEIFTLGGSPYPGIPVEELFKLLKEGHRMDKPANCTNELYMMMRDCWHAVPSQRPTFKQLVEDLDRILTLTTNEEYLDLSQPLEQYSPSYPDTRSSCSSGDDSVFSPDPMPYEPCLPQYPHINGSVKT

The target of the next assay is FGFR1 (Homo sapiens (Human), UniProt P11362). The essentials:
as §1

The target of the next assay is FGFR3 (Homo sapiens (Human), UniProt P22607). The procedure, abridged:
as §1

The target in a further assay is FGFR4 (Homo sapiens (Human), UniProt P22455). The procedure, abridged: as §1
Sequence of FGFR4 (P22455 22-802): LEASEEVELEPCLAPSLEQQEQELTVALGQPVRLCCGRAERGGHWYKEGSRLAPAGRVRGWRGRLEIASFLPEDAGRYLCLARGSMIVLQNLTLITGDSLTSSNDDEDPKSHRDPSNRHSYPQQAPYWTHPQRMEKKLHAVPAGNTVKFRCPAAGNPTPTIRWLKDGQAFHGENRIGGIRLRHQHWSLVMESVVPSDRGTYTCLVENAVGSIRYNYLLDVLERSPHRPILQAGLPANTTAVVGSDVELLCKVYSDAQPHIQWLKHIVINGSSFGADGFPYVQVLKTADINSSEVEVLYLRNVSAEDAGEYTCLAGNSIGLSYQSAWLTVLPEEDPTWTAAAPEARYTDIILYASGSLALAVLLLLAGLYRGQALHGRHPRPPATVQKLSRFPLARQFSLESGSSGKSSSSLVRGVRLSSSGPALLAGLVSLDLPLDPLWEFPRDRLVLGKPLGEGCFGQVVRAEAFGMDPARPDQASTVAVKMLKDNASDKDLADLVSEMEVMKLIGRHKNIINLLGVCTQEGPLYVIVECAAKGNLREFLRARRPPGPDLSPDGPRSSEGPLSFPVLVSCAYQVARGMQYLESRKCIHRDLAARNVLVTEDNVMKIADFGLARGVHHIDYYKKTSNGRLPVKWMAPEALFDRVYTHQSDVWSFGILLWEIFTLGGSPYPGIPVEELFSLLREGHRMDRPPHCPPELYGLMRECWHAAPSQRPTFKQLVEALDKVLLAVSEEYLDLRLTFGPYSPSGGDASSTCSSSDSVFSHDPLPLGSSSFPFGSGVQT
The target in another assay is FGFR3 (V555M) (Homo sapiens (Human), UniProt P22607, V555M). Particulars: V555M mutant. The procedure, abridged:
as §1

The structures appear in SMILES notation.

Sequence of FGFR3 (V555M) (P22607 23-806 V555M): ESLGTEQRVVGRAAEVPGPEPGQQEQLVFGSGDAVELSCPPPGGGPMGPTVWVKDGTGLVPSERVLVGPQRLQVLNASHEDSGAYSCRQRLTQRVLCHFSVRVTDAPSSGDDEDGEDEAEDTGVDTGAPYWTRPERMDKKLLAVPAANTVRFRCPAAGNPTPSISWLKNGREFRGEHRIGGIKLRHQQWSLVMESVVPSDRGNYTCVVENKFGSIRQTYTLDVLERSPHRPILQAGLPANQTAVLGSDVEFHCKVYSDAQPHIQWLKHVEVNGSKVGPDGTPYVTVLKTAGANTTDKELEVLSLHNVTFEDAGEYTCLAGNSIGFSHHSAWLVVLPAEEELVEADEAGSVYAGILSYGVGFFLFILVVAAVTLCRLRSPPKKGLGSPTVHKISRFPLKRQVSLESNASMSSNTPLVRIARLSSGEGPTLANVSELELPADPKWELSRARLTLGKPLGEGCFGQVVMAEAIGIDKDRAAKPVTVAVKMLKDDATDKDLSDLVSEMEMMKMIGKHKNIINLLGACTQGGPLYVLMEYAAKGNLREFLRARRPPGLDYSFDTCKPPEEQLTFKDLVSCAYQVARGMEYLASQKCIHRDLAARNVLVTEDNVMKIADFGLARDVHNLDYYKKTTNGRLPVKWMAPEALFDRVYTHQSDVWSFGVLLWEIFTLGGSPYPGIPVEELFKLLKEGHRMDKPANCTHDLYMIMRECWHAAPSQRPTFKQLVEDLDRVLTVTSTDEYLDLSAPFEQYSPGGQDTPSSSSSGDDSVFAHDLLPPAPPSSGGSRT
Sequence of FGFR1 (P11362 22-822): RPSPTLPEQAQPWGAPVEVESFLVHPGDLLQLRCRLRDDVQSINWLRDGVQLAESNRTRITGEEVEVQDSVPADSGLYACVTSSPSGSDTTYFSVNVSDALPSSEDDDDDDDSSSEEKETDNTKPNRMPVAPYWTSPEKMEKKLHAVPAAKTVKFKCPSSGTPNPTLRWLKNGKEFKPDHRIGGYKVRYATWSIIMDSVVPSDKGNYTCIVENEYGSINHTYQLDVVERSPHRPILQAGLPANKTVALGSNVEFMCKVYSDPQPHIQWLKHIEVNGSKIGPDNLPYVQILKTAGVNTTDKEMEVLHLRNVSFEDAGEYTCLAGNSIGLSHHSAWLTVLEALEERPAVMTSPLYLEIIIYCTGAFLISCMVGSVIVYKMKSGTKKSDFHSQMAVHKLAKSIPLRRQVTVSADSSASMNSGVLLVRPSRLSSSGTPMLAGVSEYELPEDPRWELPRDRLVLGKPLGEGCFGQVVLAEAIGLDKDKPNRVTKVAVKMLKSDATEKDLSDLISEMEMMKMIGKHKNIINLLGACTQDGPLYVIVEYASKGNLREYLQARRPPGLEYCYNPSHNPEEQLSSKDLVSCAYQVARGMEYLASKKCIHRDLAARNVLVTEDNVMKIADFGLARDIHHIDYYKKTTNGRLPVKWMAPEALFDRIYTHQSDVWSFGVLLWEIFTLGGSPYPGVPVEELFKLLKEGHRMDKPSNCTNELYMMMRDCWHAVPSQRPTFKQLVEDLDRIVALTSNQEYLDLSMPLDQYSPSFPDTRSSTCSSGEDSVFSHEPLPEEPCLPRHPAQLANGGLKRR
Sequence of FGFR3 (P22607 23-806): as the sequence (P22607 23-806 V555M) above, with M533V counted along it

As for `CCS(=O)(=O)N1CCCC2(CN(c3ccc(-c4n[nH]c5ccc(O[C@H](C)c6c(C)cnnc6C)cc45)cn3)C2)C1` [Example 186, 5-[(1R)-1-(3,5-dimethylpyridazin-4-yl)ethoxy]-3-[6-(8-ethylsulfonyl-2,8-diazaspiro[3.5]nonan-2-yl)-3-pyridyl]-1H-indazole], the Kd fell in the range of 20 to 100 nM on FGFR2; 100 to 300 nM at FGFR1; 1 to 20 nM at FGFR3; 20 to 100 nM at FGFR4; 1 to 20 nM on FGFR3 (V555M).
Take `COC(=O)N1CCCC2(C1)CN(c1ccc(-c3n[nH]c4ccc(O[C@H](C)c5c(C)cnnc5C)cc34)cn1)C2` [Example 187, methyl 2-[5-[5-[(1R)-1-(3,5-dimethylpyridazin-4-yl)ethoxy]-1H-indazol-3-yl]-2-pyridyl]-2,8-diazaspiro[3.5]nonane-8-carboxylate]: the Kd on FGFR2, on FGFR1, at FGFR3, at FGFR4 and on FGFR3 (V555M) was 1 to 20 nM throughout.
As to `Cc1cnnc(C)c1[C@@H](C)Oc1ccc2[nH]nc(-c3ccc(N4CC5(CCCN(S(C)(=O)=O)C5)C4)nc3)c2c1` [Example 188, 5-[(1R)-1-(3,5-dimethylpyridazin-4-yl)ethoxy]-3-[6-(8-methylsulfonyl-2,8-diazaspiro[3.5]nonan-2-yl)-3-pyridyl]-1H-indazole], the dissociation constant (Kd) at FGFR2 was 1 to 20 nM; at FGFR1, 20 to 100 nM; at FGFR3, 1 to 20 nM; at FGFR4, 1 to 20 nM; on FGFR3 (V555M), 1 to 20 nM.
`Cc1cnnc(C)c1[C@@H](C)Oc1ccc2[nH]nc(-c3ccc(N4CC5(CCCN(C(=O)OC(C)C)C5)C4)nc3)c2c1` [Example 189, isopropyl 2-[5-[5-[(1R)-1-(3,5-dimethylpyridazin-4-yl)ethoxy]-1H-indazol-3-yl]-2-pyridyl]-2,8-diazaspiro[3.5]nonane-8-carboxylate]: the Kd on FGFR2 was 1 to 20 nM; on FGFR1, 20 to 100 nM; at FGFR3, 1 to 20 nM; on FGFR4, 1 to 20 nM; at FGFR3 (V555M), 1 to 20 nM.
Take `CCOC(=O)N1CC2(C1)CN(c1ccc(-c3n[nH]c4ccc(O[C@H](C)c5c(Cl)cnc(C)c5Cl)cc34)cn1)C2` [Example 190, ethyl 6-[5-[5-[(1R)-1-(3,5-dichloro-2-methyl-4-pyridyl)ethoxy]-1H-indazol-3-yl]-2-pyridyl]-2,6-diazaspiro[3.3]heptane-2-carboxylate]: the Kd on FGFR2 is 100 to 300 nM; on FGFR1, 100 to 300 nM; on FGFR3 it was 1 to 20 nM; at FGFR4, 20 to 100 nM; on FGFR3 (V555M), 1 to 20 nM.
Regarding `COc1cc2[nH]nc(-c3ccc(N4CC5(C4)CN(S(C)(=O)=O)C5)nc3)c2cc1O[C@H](C)c1c(Cl)cncc1Cl` [Example 191, 5-[(1R)-1-(3,5-dichloro-4-pyridyl)ethoxy]-6-methoxy-3-[6-(2-methylsulfonyl-2,6-diazaspiro[3.3]heptan-6-yl)-3-pyridyl]-1H-indazole], the Kd at FGFR2, on FGFR1, on FGFR3, on FGFR4 and on FGFR3 (V555M) was 1 to 20 nM each time.
As to `COc1cc2[nH]nc(-c3ccc(N4CC5(C4)CN(S(C)(=O)=O)C5)nc3)c2cc1O[C@@H](C)c1c(C)cnnc1C` [Example 192, 5-[(1S)-1-(3,5-dimethylpyridazin-4-yl)ethoxy]-6-methoxy-3-[6-(2-methylsulfonyl-2,6-diazaspiro[3.3]heptan-6-yl)-3-pyridyl]-1H-indazole], the Kd lay in the range of 20 to 100 nM on FGFR2; 100 to 300 nM on FGFR1; 1 to 20 nM at FGFR3; 100 to 300 nM on FGFR4; 1 to 20 nM on FGFR3 (V555M).
With `CCOC(=O)N1CC2(C1)CN(c1ccc(-c3n[nH]c4ccc(O[C@@H](C)c5c(Cl)cnc(F)c5Cl)cc34)cn1)C2` [Example 193, Ethyl 6-[5-[5-[(1S)-1-(3,5-dichloro-2-fluoro-4-pyridyl)ethoxy]-1H-indazol-3-yl]-2-pyridyl]-2,6-diazaspiro[3.3]heptane-2-carboxylate], the Kd at FGFR2 was above 300 nM; at FGFR1, above 300 nM; on FGFR3 it was above 300 nM; at FGFR4, above 300 nM; on FGFR3 (V555M), 100 to 300 nM.
With `COc1cc2[nH]nc(-c3ccc(N4CC5(C4)CN(S(C)(=O)=O)C5)nc3)c2cc1O[C@H](C)c1c(C)cnnc1C` [Example 194, 5-[(1R)-1-(3,5-dimethylpyridazin-4-yl)ethoxy]-6-methoxy-3-[6-(2-methylsulfonyl-2,6-diazaspiro[3.3]heptan-6-yl)-3-pyridyl]-1H-indazole], the Kd at FGFR2, at FGFR1, at FGFR3, on FGFR4 and at FGFR3 (V555M) was 1 to 20 nM throughout.
For `COC(=O)N1CC2(C1)CN(c1ccc(-c3n[nH]c4ccc(O[C@H](C)c5c(Cl)cnc(F)c5Cl)cc34)cn1)C2` [Example 195, methyl 6-[5-[5-[(1R)-1-(3,5-dichloro-2-fluoro-4-pyridyl)ethoxy]-1H-indazol-3-yl]-2-pyridyl]-2,6-diazaspiro[3.3]heptane-2-carboxylate], the Kd on FGFR2 is 20 to 100 nM; at FGFR1, 100 to 300 nM; on FGFR3 it was 1 to 20 nM; at FGFR4, 20 to 100 nM; at FGFR3 (V555M), 1 to 20 nM.
As to `CCOC(=O)N1CC2(C1)CN(c1ccc(-c3n[nH]c4ccc(O[C@H](C)c5c(Cl)cnc(F)c5Cl)cc34)cn1)C2` [Example 196, ethyl 6-[5-[5-[(1R)-1-(3,5-dichloro-2-fluoro-4-pyridyl)ethoxy]-1H-indazol-3-yl]-2-pyridyl]-2,6-diazaspiro[3.3]heptane-2-carboxylate], the Kd on FGFR2 lay in the range of 100 to 300 nM; at FGFR1 it was 100 to 300 nM; at FGFR3, 1 to 20 nM; at FGFR4 it was 20 to 100 nM; at FGFR3 (V555M) it was 1 to 20 nM.
Take `C[C@@H](Oc1ccc2[nH]nc(-c3ccc(N4CC5(C4)CN(S(C)(=O)=O)C5)nc3)c2c1)c1c(Cl)cnc(F)c1Cl` [Example 197, 5-[(1R)-1-(3,5-dichloro-2-fluoro-4-pyridyl)ethoxy]-3-[6-(2-methylsulfonyl-2,6-diazaspiro[3.3]heptan-6-yl)-3-pyridyl]-1H-indazole]: the Kd on FGFR2 is 20 to 100 nM; on FGFR1, 20 to 100 nM; at FGFR3 it was 1 to 20 nM; on FGFR4 it was 1 to 20 nM; on FGFR3 (V555M) it was 1 to 20 nM.
As to `COC(=O)N1CC2(C1)CN(c1ccc(-c3n[nH]c4ccc(O[C@@H](C)c5c(Cl)cnc(F)c5Cl)cc34)cn1)C2` [Example 198, methyl 6-[5-[5-[(1S)-1-(3,5-dichloro-2-fluoro-4-pyridyl)ethoxy]-1H-indazol-3-yl]-2-pyridyl]-2,6-diazaspiro[3.3]heptane-2-carboxylate], the Kd at FGFR2 is above 300 nM; on FGFR1 it was above 300 nM; at FGFR3, 100 to 300 nM; at FGFR4, above 300 nM; on FGFR3 (V555M), 20 to 100 nM.
`C[C@H](Oc1ccc2[nH]nc(-c3ccc(N4CC5(C4)CN(S(C)(=O)=O)C5)nc3)c2c1)c1c(Cl)cnc(F)c1Cl` [Example 199, 5-[(1S)-1-(3,5-dichloro-2-fluoro-4-pyridyl)ethoxy]-3-[6-(2-methylsulfonyl-2,6-diazaspiro[3.3]heptan-6-yl)-3-pyridyl]-1H-indazole]: the Kd on FGFR2 was above 300 nM; on FGFR1 it was above 300 nM; at FGFR3, 100 to 300 nM; at FGFR4, above 300 nM; at FGFR3 (V555M) it was 20 to 100 nM.
For `COc1c(O[C@H](C)c2c(C)cnnc2C)ccc2[nH]nc(-c3ccc(N4CC5(C4)CN(S(C)(=O)=O)C5)nc3)c12` [Example 200, 5-[(1R)-1-(3,5-dimethylpyridazin-4-yl)ethoxy]-4-methoxy-3-[6-(2-methylsulfonyl-2,6-diazaspiro[3.3]heptan-6-yl)-3-pyridyl]-1H-indazole], the Kd on FGFR2 was above 300 nM; on FGFR1 it was above 300 nM; on FGFR3, above 300 nM; on FGFR4, above 300 nM; at FGFR3 (V555M), 100 to 300 nM.
As for `Cc1ncc(Cl)c([C@@H](C)Oc2ccc3[nH]nc(-c4ccc(N5CC6(COC6)C5)nc4)c3c2)c1Cl` [Example 201, 6-[5-[5-[(1R)-1-(3,5-dichloro-2-methyl-4-pyridyl)ethoxy]-1H-indazol-3-yl]-2-pyridyl]-2-oxa-6-azaspiro[3.3]heptane], the Kd on FGFR2 is 1 to 20 nM; on FGFR1, 20 to 100 nM; on FGFR3, 1 to 20 nM; at FGFR4, 1 to 20 nM; on FGFR3 (V555M), 1 to 20 nM.
Turning to `COc1cc2[nH]nc(-c3ccc(N4CC5(COC5)C4)nc3)c2cc1O[C@H](C)c1c(C)cnnc1C` [Example 202, 6-[5-[5-[(1R)-1-(3,5-dimethylpyridazin-4-yl)ethoxy]-6-methoxy-1H-indazol-3-yl]-2-pyridyl]-2-oxa-6-azaspiro[3.3]heptane], the Kd on FGFR2, on FGFR1, on FGFR3, at FGFR4 and at FGFR3 (V555M) was 1 to 20 nM throughout.
On to `C[C@@H](Oc1ccc2[nH]nc(-c3ccc(N4CC5(COC5)C4)nc3)c2c1)c1c(Cl)cnc(F)c1Cl` [Example 203, 6-[5-[5-[(1R)-1-(3,5-dichloro-2-fluoro-4-pyridyl)ethoxy]-1H-indazol-3-yl]-2-pyridyl]-2-oxa-6-azaspiro[3.3]heptane], for which the Kd on FGFR2 lay in the range of 1 to 20 nM; on FGFR1 it was 20 to 100 nM; at FGFR3, 1 to 20 nM; at FGFR4, 1 to 20 nM; on FGFR3 (V555M), 1 to 20 nM.
